Results from article PMC6006164, “Natural cyclopeptide RA-V inhibits the NF-κB signaling pathway by targeting TAK1” (Cell Death & Disease, 2018).

Tested on: HEK293T and HeLa cells
Assay: MTT assay
Type: cell-based
Settings: under reporter-assay treatment, high concentrations
Experimental: Fig. 1 RA-V inhibits TNF-α- and LPS-induced activation of NF-κB. a Chemical structure of RA-V. b RA-V inhibited the NF-κB signaling pathway in a dose-dependent manner. HEK293T or HeLa cells were transfected with the 5 × κB-luciferase and pTK-Renilla reporters. Twenty-four hours after transfection, the cells were incubated with various concentrations of RA-V for 6 h, and then treated with 10 ng/mL TNF-α for 2 h before the luciferase activity assay and MTT assay. c RA-V reduced TNF-α-induced expression of NF-κB target genes. HEK293T or HeLa cells were treated with various concentrations of RA-V for 24 h and stimulated with 10 ng/mL TNF-α for 2 h. The expression of the NF-κB target genes, IL-8, MCP-1, and E-selectin was measured by quantitative RT-PCR and normalized to GADPH expression. d RA-V inhibited TNF-α-induced p65 phosphorylation, IκBα phosphorylation and IκBα degradation. […] The expression of IL-6 was measured. h RA-V inhibited LPS-induced p65 phosphorylation, IκBα phosphorylation. […] The protein expression was measured. i RA-V inhibited LPS-induced IL-6 production. […] The expression of IL-6 was measured.
HEK293T cells (5 × 10^3 cells/well) or HeLa cells (3 × 10^3 cells/well) were seeded in a 96-well plate with 100 μL medium and cultured for 12 h in a CO2 incubator. […] After 4 h, the medium was replaced with 150 μL DMSO, and the optical density was measured at […] (Molecular Devices). […]

RA-V
antiproliferative effect (MTT): only a slight antiproliferative effect
